# Experimental data taken from the supplement of paper PMC11208160.
# Experiment: recombinant UMI read abundance after kanamycin selection (control-corrected) (log10(CPM+1)); higher = more efficient recombination; extreme values may be limits of the assay; sequences stand for … in AGTGCAGAGAAAATCGGCCAGTTTTCTCTGCCTGCAGTCCGCATGCCGTGGGACCCCTTGGGTTCTAACCTGTTGCCTAGATTTATGCAGCGGACTGCCTTTCTCCCAAAGTGATAAACCGG…AGGTTGGTTTCACT; site = the 11-nt donor
# Outline: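 Pooled Escherichia coli screen of donor and donor-binding-loop pairs for the IS621 bridge recombinase. Each pair sits with a 12-nt UMI on a plasmid carrying a promoterless kanamycin gene. The library was co-electroporated with a target plasmid encoding a fixed target and T7-inducible recombinase, then plated with IPTG (0.07 mM) plus kanamycin, or unselected, each in two replicates. Recombinant UMIs were PCR-amplified across the donor–target junction and sequenced. Counts became CPM, averaged over replicates, scaled by control-derived factors and reported as log10(CPM+1).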
row,Sequence,recombinant UMI read abundance (log10)
1,AGCACTACATGGACCGGTTTTCCCGGTAATCCGTATTTGAC (site AGTACTACTGT),0.741
2,AGCATCCCATGGACCGGTTTTCCCGGTAATCCGTATTTGGC (site AGCATCCCTGC),1.74
3,AGCCAAGCATGGACCGGTTTTCCCGGTAATCCGTATTTGAG (site AACCAAGCTCT),0.0428
4,AGCCAAGCATGGACCGGTTTTCCCGGTAATCCGTATTTGAG (site ACCCAAGCTCT),0.641
5,AGCCAAGCATGGACCGGTTTTCCCGGTAATCCGTATTTGAG (site AGCCAAGCTCT),1.3
6,AGCCAAGCATGGACCGGTTTTCCCGGTAATCCGTATTTGAG (site ATCCAAGCTCT),0.655
7,AGCCGCTCATGGACCGGTTTTCCCGGTAATCCGTATTTGAT (site AGCCGCTCTAT),1.65
8,AGCCGTCCATGGACCGGTTTTCCCGGTAATCCGTATTTGAT (site AACCGTCCTAT),0.00909
9,AGCCGTCCATGGACCGGTTTTCCCGGTAATCCGTATTTGAT (site ACCCGTCCTAT),0
10,AGCCGTCCATGGACCGGTTTTCCCGGTAATCCGTATTTGAT (site AGCCGTCCTAT),1.09
11,AGCCGTCCATGGACCGGTTTTCCCGGTAATCCGTATTTGAT (site ATCCGTCCTAT),0.0112
12,AGCCTCTCATGGACCGGTTTTCCCGGTAATCCGTATTTGAC (site AGCCTATCTGT),0
13,AGCCTCTCATGGACCGGTTTTCCCGGTAATCCGTATTTGAC (site AGCCTCTCTGT),0
14,AGCCTCTCATGGACCGGTTTTCCCGGTAATCCGTATTTGAC (site AGCCTGTCTGT),0
15,AGCCTCTCATGGACCGGTTTTCCCGGTAATCCGTATTTGAC (site AGCCTTTCTGT),0
16,AGCCTTACATGGACCGGTTTTCCCGGTAATCCGTATTTGAC (site AGCCTTACTGT),2.52
17,AGCCTTACATGGACCGGTTTTCCCGGTAATCCGTATTTGAC (site AGCCTTCCTGT),0
18,AGCCTTACATGGACCGGTTTTCCCGGTAATCCGTATTTGAC (site AGCCTTGCTGT),0
19,AGCCTTACATGGACCGGTTTTCCCGGTAATCCGTATTTGAC (site AGCCTTTCTGT),0
20,AGCCTTGCATGGACCGGTTTTCCCGGTAATCCGTATTTGTA (site AGCCTTGCTTA),0.019
21,AGCCTTTCATGGACCGGTTTTCCCGGTAATCCGTATTTGGC (site AGCCTTTCTGA),0
22,AGCCTTTCATGGACCGGTTTTCCCGGTAATCCGTATTTGGC (site AGCCTTTCTGC),0
23,AGCCTTTCATGGACCGGTTTTCCCGGTAATCCGTATTTGGC (site AGCCTTTCTGG),0
24,AGCCTTTCATGGACCGGTTTTCCCGGTAATCCGTATTTGGC (site AGCCTTTCTGT),0
25,AGCGAGCCATGGACCGGTTTTCCCGGTAATCCGTATTTGTA (site AGCGAGCCTTA),0.53
26,AGCGAGCCATGGACCGGTTTTCCCGGTAATCCGTATTTGTT (site AGCGAGCCTAA),0.501

row,Sequence,recombinant UMI read abundance (log10)
1,AGCGGATCATGGACCGGTTTTCCCGGTAATCCGTATTTGAG (site AGCGGATCTCT),2.33
2,AGCGTGGCATGGACCGGTTTTCCCGGTAATCCGTATTTGGG (site AGCGTGGCTCC),0.277
3,AGCGTTTCATGGACCGGTTTTCCCGGTAATCCGTATTTGAC (site AGCATTTCTGT),0
4,AGCGTTTCATGGACCGGTTTTCCCGGTAATCCGTATTTGAC (site AGCCTTTCTGT),0
5,AGCGTTTCATGGACCGGTTTTCCCGGTAATCCGTATTTGAC (site AGCGTTTCTGT),2.63
6,AGCGTTTCATGGACCGGTTTTCCCGGTAATCCGTATTTGAC (site AGCTTTTCTGT),0.136
7,AGCTACGCATGGACCGGTTTTCCCGGTAATCCGTATTTGTC (site AGCTACGCTGA),2.27
8,AGCTAGACATGGACCGGTTTTCCCGGTAATCCGTATTTGGG (site AACTAGACTCC),0.0198
9,AGCTAGACATGGACCGGTTTTCCCGGTAATCCGTATTTGGG (site ACCTAGACTCC),0.239
10,AGCTAGACATGGACCGGTTTTCCCGGTAATCCGTATTTGGG (site AGCTAGACTCC),0.0244
11,AGCTAGACATGGACCGGTTTTCCCGGTAATCCGTATTTGGG (site ATCTAGACTCC),0.0227
12,AGCTATTCATGGACCGGTTTTCCCGGTAATCCGTATTTGGC (site AGCTATTCTGC),0.69
13,AGCTCAGCATGGACCGGTTTTCCCGGTAATCCGTATTTGCG (site AGCTCAGCTCA),0.0116
14,AGCTCAGCATGGACCGGTTTTCCCGGTAATCCGTATTTGCG (site AGCTCAGCTCC),0.00908
15,AGCTCAGCATGGACCGGTTTTCCCGGTAATCCGTATTTGCG (site AGCTCAGCTCG),0.537
16,AGCTCAGCATGGACCGGTTTTCCCGGTAATCCGTATTTGCG (site AGCTCAGCTCT),0.277
17,AGCTCCGCATGGACCGGTTTTCCCGGTAATCCGTATTTGCG (site AGCTCCGCTCG),0.271
18,AGCTGGTCATGGACCGGTTTTCCCGGTAATCCGTATTTGTA (site AGCTGGTCTTA),0.951
19,AGCTTAGCATGGACCGGTTTTCCCGGTAATCCGTATTTGGG (site AGCTAAGCTCC),0.0186
20,AGCTTAGCATGGACCGGTTTTCCCGGTAATCCGTATTTGGG (site AGCTCAGCTCC),0.0187
21,AGCTTAGCATGGACCGGTTTTCCCGGTAATCCGTATTTGGG (site AGCTGAGCTCC),0.034
22,AGCTTAGCATGGACCGGTTTTCCCGGTAATCCGTATTTGGG (site AGCTTAGCTCC),0.0198
23,AGGAAACCATGGACCGGTTTTCCCGGTAATCCGTATTTGTT (site AGGAAACCTAA),0
24,AGGAAACCATGGACCGGTTTTCCCGGTAATCCGTATTTGTT (site CGGAATCCTAA),0
25,AGGAACACATGGACCGGTTTTCCCGGTAATCCGTATTTGAA (site AGGAACACTTT),2.29
26,AGGAACACATGGACCGGTTTTCCCGGTAATCCGTATTTGAA (site AGGAAGACTTG),0
